Results on 18 compounds are retold here after patent USRE38963E1, “Pyrazoline derivatives, their preparation and application as medicaments” (Laboratorios del Dr. Esteve, priority 1998, dated 2006).

Like-named read-outs stand apart in the source and are kept apart here. Bounds are passed on as bounds.

Data set [1] deals with carrageenan pre-inflamed rat paw. In words: Analgesic activity against hyperalgesia by thermal stimulus of pre-inflamed rat paw. Format: in vivo. The settings on record: for % Activity, analgesic activity against hyperalgesia by thermal stimulus: dose 40 mg/kg po, 2 h after treatment; for ED50: po, read-out: ED-50 of analgesic activity against hyperalgesia by thermal stimulus. As to the method:
Analgesic Activity Against “Hyperalgesia” by Thermal Stimulus of Pre-inflamed Rat Paw
In this assay the analgesic activity in rat was monitored following the method described by K. Hargreaves et al. (Pain, 1988, 32, 77-78). Firstly, a suspension of carrageenan was injected into the back right paw of each rat. After two hours the products under study were administered orally at a screening dose of 40 mg/kg. Two hours after treatment a heat source was applied to the sole of each back paw of the rats and the time measured that they took to remove the paw measured. Hyperalgesia was determined by comparing the percentage of algesia of the paw injected with carrageenan to the other back paw. The analgesic activity was calculated comparing these hyperalgesia values of the groups treated with product with those of the group treated with the vehicle only.

For data set [2], the system named is COX-2/COX-1 (PGE2 in inflammatory exudate). As to the kind of experiment: Inhibition of the synthesis of prostaglandins (PGE2) in inflammatory exudate in rat, carrageenan sponge. In kind it is in vivo. The settings on record: for inhibition at 40 mg/kg: read-out: Inhibition of PGE2, Inflammatory exudate; for ED50: read-out: ED-50, Inhibition of PGE2, Inflammatory exudate. The method, then:
(§1) Inhibition of the Synthesis of Prostaglandins in Inflammatory Exudate and Mucus Membrane in Rat
(§2) The products under study are administered orally at an initial screening dose of 40 mg/kg One hour after treatment the rats were anaesthetised and a sponge soaked in carrageenan was implanted subcutaneously in the interscapular zone. Six hours after implantation the rats were sacrificed and the interscapular sponges extracted as well as gastric mucuous. Next the PGE2 content was determined by immunoassay for each one of the samples, in the sponge exudate on the one hand and in the gastric mucus on the other.

Data set [3] concerns COX-1 (PGE2 in gastric mucus). In words: Inhibition of the synthesis of prostaglandins (PGE2) in gastric mucus in rat. Format: in vivo. To be noted: for inhibition at 40 mg/kg: read-out: Inhibition of PGE2, Gastric mucus; for ED50: read-out: ED-50, Inhibition of PGE2, Gastric mucus. As to the method: as §1, §2
The next data set has as its system gastric ulcers in rats. In words: Gastrointestinal effects: induction of ulcers in rats submitted to cold stress. In kind it is in vivo. The settings on record: rat, po; for Maximum non-Ulcerogenic dose: linear regression of dose-response. As to the method: Gastrointestinal Effects (GI): Induction of Ulcers in Rats Submitted to Cold Stress
In this assay possible ulcerogenic effects at a gastrointestinal level were determined after oral administration. […] Firstly the rats received the products under study orally at different doses. After two hours had elapsed the rats were placed in a chest freezer at −15° C. for 1 hour. Afterwards they were left for 1 hour at room temperature The animals were then sacrificed and the stomach extracted. The stomach was kept in saline solution for 15 minutes After this time the percentage of surface area with gastric ulcers was determined using a Project C.S.V. vs 1.2 image analyser for each stomach.

Data set [4] has as its system secondary inflammation of paw (experimental arthritis). As to the kind of experiment: Anti-arthritic activity in rat (Freund adjuvant). In kind it is in vivo. To be noted: 10 mg/kg/day po for 11 days. The method, then:
Anti-arthritic Activity in Rat
In this study the anti-arthritic activity in rat of the compound of example 3 has been studied. To do so the method described by B. J. Jaffee et al. (Agents and Actions, 1989, 27, 344-346) was followed. Firstly, the Freund adjuvant was injected (Mycobacterium butiricum suspended in soy-bean oil) through the sub-sole of the back left paw of the rats. After 14 days, when the secondary inflammation had developed in the uninjected paw, which is considered the experimental arthritis, treatment with the product under study or with the vehicle for the control group was started. The compound of example 3 was administered orally at a dose of 10 mg/kg/day for 11 days. The volume of the paw with secondary inflammation in the last days of treatment was measured. The anti-arthritic activity was calculated by comparing the average volume of the paw with secondary inflammation of the group treated with the compound of example 3 and the control group for 5 days.

As for `COc1ccc2cc(CCC(C)=O)ccc2c1` [Nabumetone], the “% Activity, analgesic activity against hyperalgesia by thermal stimulus” value (from here on “% Activity, analgesic activity”) in data set [1] turned out to be 95%. Further, the ED50 in data set [1] was 2.1 mg/kg; in data set [2] (rat, po), 110 mg/kg; in data set [3] (rat, po), above 40 mg/kg. In addition, the inhibition at 40 mg/kg in data set [2] (rat, dose 40 mg/kg po) is 93%; in data set [3] (rat, dose 40 mg/kg po), 0%.

With `Cc1ccc(C2CC(C(N)=O)=NN2c2ccc(S(N)(=O)=O)cc2)cc1` (centres unmarked) [Example 6, 1-(4-aminosulphonylphenyl)-4,5-dihydro-5-(4-methylphenyl)-1H-pyrazole-3-carboxamide], the melting point fell in the range of 137 to 140 °C.

Take `CS(=O)(=O)Nc1ccc([N+](=O)[O-])cc1Oc1ccccc1` [Nimesulide]: in data set [1], the “% Activity, analgesic activity” value was determined as 97% and the ED50 turned out to be 1 mg/kg.

For the compound `COC(=O)C1=NN(c2ccc(S(C)(=O)=O)cc2)C(c2ccc(C)cc2)C1` (centres unmarked) [Example 5, methyl 4,5-dihydro-5-(4-methylphenyl)-1-(4-methylsulphonylphenyl)-1H-pyrazole-3-carboxylate], the melting point lay in the range of 156 to 157 °C.

Take `Cc1cnc(NC(=O)C2=C(O)c3ccccc3S(=O)(=O)N2C)s1` [Meloxicam]: the inhibition at 40 mg/kg worked out at 97% in data set [2] (Rattus norvegicus, po) and 65% in data set [3] (Rattus norvegicus, po).

Take `Cc1ccc(C2CC(C#N)=NN2c2ccc(S(C)(=O)=O)cc2)cc1` (centres unmarked) [Example 7, 3-cyano-4,5-dihydro-5-(4-methylphenyl)-1-(4-methylsulphonylphenyl)-1H-pyrazole]: the melting point was in the range of 115 to 119 °C.

With `CC(=O)NS(=O)(=O)c1ccc(N2N=C(C(F)(F)F)CC2c2ccc(F)cc2F)cc1` (centres unmarked) [Example 64, 1-(4-acetylaminosulphonylphenyl)-5-(2,4-difluorophenyl)-4,5-dihydro-3-trifluoromethyl-1H-pyrazole], the melting point lay within 172 to 174 °C.

`CC1(c2ccccc2)CC(C(F)(F)F)=NN1c1ccc(S(N)(=O)=O)cc1` (centres unmarked) [Example 2, 1-(4-Aminosulphonylphenyl)-4,5-dihydro-5-phenyl-5-methyl-3-trifluoromethyl-1H-pyrazole] came in with a melting point of 60 to 66 °C.

With `Cc1ccc(C2CC(C(N)=O)=NN2c2ccc(S(N)(=O)=O)cc2)cc1` (centres unmarked) [Example 41, 1-(4-aminosulphonylphenyl)-4,5-dihydro-5-(4-methylphenyl)-1H-pyrazole-3-carboxamide], the melting point lay within 210 to 215 °C.

In turn, `Cc1ccc(C2CC(C(=O)O)=NN2c2ccc(S(N)(=O)=O)cc2)cc1` (centres unmarked) [Example 34, 1-(4-aminosulphonylphenyl)-4,5-dihydro-5-(4-methylphenyl)-1H-pyrazole-3-carboxylic acid] registered a melting point of 172 to 176 °C.

The compound `COC(=O)C1=NN(c2ccc(S(C)(=O)=O)cc2)C(c2ccc(C)cc2)C1` (centres unmarked) [Example 39, methyl 4,5-dihydro-5-(4-methylphenyl)-1-(4-methylsulphonylphenyl)-1H-pyrazole-3-carboxylate] gave a melting point of 155 to 160 °C.

`CC(=O)NS(=O)(=O)c1ccc(N2N=C(C(F)(F)F)CC2c2ccc(F)cc2F)cc1` (centres unmarked) [Example 8, 1-(4-acetylaminosulphonylphenyl)-5-(2,4-difluorophenyl)-4,5-dihydro-3-trifluoromethyl-1H-pyrazole] had a melting point of 154 to 156 °C.

Regarding `O=C(O)Cc1ccccc1Nc1c(Cl)cccc1Cl` [Dichlophenac], in the data set on gastric ulcers in rats (cold stress), the “Ulcerogenic effects (in words)” value is listed as “exhibited ulcerogenic effects at very low doses” and the “Maximum non-Ulcerogenic dose” value is 1.2 mg/kg.

On to `NS(=O)(=O)c1ccc(N2N=C(C(F)(F)F)CC2c2ccc(F)cc2F)cc1` (centres unmarked) [Example 3, 1-(4-aminosulphonylphenyl)-5-(2,4-difluorophenyl)-4,5-dihydro-3-trifluoro methyl-1H-pyrazole], for which the “Inhibition of secondary inflammation (anti-arthritic activity)” value in data set [4] is 71%. For the same compound, the “Ulcerogenic effects (in words)” value with gastric ulcers in rats (in vivo) was “not to have ulcerogenic effects, even at very high doses”. Besides, the “Maximum non-Ulcerogenic dose” value in the data set on gastric ulcers in rats (cold stress) is above 80 mg/kg. Moreover, the “% Activity, analgesic activity” value in data set [1] is on record as 100%. Besides, the ED50 in data set [1] is 0.2 mg/kg; in data set [2] (rat, po), 36 mg/kg; in data set [3] (rat, po), above 40 mg/kg. Moreover, the inhibition at 40 mg/kg in data set [2] (rat, dose 40 mg/kg po) was 92%; in data set [3] (rat, dose 40 mg/kg po), 0%.

Regarding `Cc1ccc(C2CC(C(N)=O)=NN2c2ccc(S(C)(=O)=O)cc2)cc1` (centres unmarked) [Example 42, 4,5-dihydro-5-(4-methylphenyl)-1-(4-methylsulphonylphenyl)-1H-pyrazole-3-carboxamide], the melting point lay in the range of 128 to 132 °C.

Regarding `Cc1ccc(C2CC(C#N)=NN2c2ccc(S(C)(=O)=O)cc2)cc1` (centres unmarked) [Example 43, 3-cyano-4,5-dihydro-5-(4-methylphenyl)-1-(4-methylsulphonylphenyl)-1H-pyrazole], the melting point was 162 to 164 °C.

`Cc1ccc(C2CC(C(F)(F)F)=NN2c2ccc(S(N)(=O)=O)cc2)cc1` (centres unmarked) [Example 1, 1-(4-Aminosulphonylphenyl)-4,5-dihydro-5-(4-metylphenyl)-3-trifluoromethyl-1H-pyrazole] returned a melting point of 140 to 143 °C.

In the case of `CN1C(C(=O)Nc2ccccn2)=C(O)c2ccccc2S1(=O)=O` [Piroxicam], the “Ulcerogenic effects (in words)” value with gastric ulcers in rats (in vivo) is on record as “exhibited ulcerogenic effects at very low doses”. Moreover, the “Maximum non-Ulcerogenic dose” value in the data set with gastric ulcers in rats (cold stress) is reported as 1.7 mg/kg.

By inhibition is commonly meant the drop in the measured response relative to a control, in per cent. Usually melting point stands for the temperature, or range, at which the solid turns liquid.
